Consider one molecule from patent publication US12246022B2, “Compositions and methods for treating, preventing or reversing age associated inflammation and disorders” (BROWN UNIVERSITY, priority 2019, dated 2025).

Common to all, as to format: cell-based
Data set [1] has as its system HeLa cells. Put plainly: Cell viability assay (CellTiter-Glo). Conditions: doses up to 2 μM. The protocol: As described above, the toxicity of RTIs could impair their ability to halt or block the harmful effects of senescent cells and their ability to prevent or reverse age-related inflammation and disorders.
HeLa cells were treated with the different concentrations of the eight RTI compounds for 48 hours. Cell viability was measured with CellTiter-Glo® luminescent cell viability assay (Promega®) and presented as percentage of cell viability versus untreated cells. Staurosporine, known to induce cell death, was used as a control.
In general terms: In ATP-based viability assays light output follows the ATP content of the culture.

Data set [2] relates to human LINE-1. Put plainly: Human LINE-1 retrotransposition assay (dual luciferase pYX017 reporter, HeLa cells, Table 11). On the procedure:
Assays were performed as described in Xie et al., 2011^151 with several modifications. The reporter assay was performed in 96 well white Optical bottom plates. 6000 HeLa cells were seeded in each well 24 hours prior transfection and compound treatment. All compounds were resuspended in DMSO. Stock solution concentrations varied from 50 mM to 1.25 mM depending of the solubility of the compound. Serial dilutions (1:3) were prepared in DMSO. Ten different concentrations of each compound were tested in triplicate. Medium containing different concentrations of the compounds were prepared by adding 2 μL of the compound dilution to 1 mL of the culture medium. The final concentration of DMSO in the medium was 0.2%. FuGENE® HD transfection reagent (Promega) was used to transfect the plasmid pYX016 into the cells. The transfection mix was prepared in OpiMEM (Thermo Fisher) using a reagent to DNA ratio of 3.5:1 according to manufacturer's instructions. Culture medium was removed from the cells and discarded. The transfection mix (5 μL) was mixed with the compound containing medium (100 μL/well) and this was added onto the cells of each well. Cells were incubated for 48H at 37° C./5% CO2. Luciferase reporter activity was quantified with the Dual-Luciferase® Reporter Assay System (Promega) according to manufacturer's instructions for multiwell plates with the following modification: Cells were lysed directly on the multiwell plate with 30 μL of the passive lysis buffer (PLB) for 20 min at room temperature, with gentle shaking to ensure complete cell lysis (instead of 20 μL of PLB for 15 min). Firefly and Renilla luciferase signals were measured using a SpectraMax i3x Multi-Mode Microplate Reader. […] Relative L1 activity was calculated as Firefly/Renilla *10,000. […] The experiment was performed twice, independently. […] Because the human construct yields a lower signal, compounds were incubated with cells for 72 hours instead of 48 hours, and cells were seeded at a density of 2000/well instead of 6000/well. In addition, the transfection reagent to DNA ratio was 2:1 instead of 3.5:1.

For data set [3], the system named is mouse LINE-1. As to the kind of experiment: Mouse LINE-1 retrotransposition assay (dual luciferase pYX016 reporter, HeLa cells). The protocol: Elvucitabine was obtained by custom synthesis. […] HeLa cervical cancer cells were cultivated at 37° C. in a humidified 5% CO2 incubator in Dulbecco's Modified Eagle's Medium (DMEM)-high glucose, with 4500 mg/L glucose, L-glutamine, sodium pyruvate and sodium bicarbonate (Sigma), supplemented with 10% of heat inactivated fetal bovine serum (Thermo Fisher). Assays were performed as described in Xie et al., 2011^151 with several modifications. The reporter assay was performed in 96 well white Optical bottom plates. 6000 HeLa cells were seeded in each well 24 hours prior transfection and compound treatment. All compounds were resuspended in DMSO. Stock solution concentrations varied from 50 mM to 1.25 mM depending of the solubility of the compound. Serial dilutions (1:3) were prepared in DMSO. Ten different concentrations of each compound were tested in triplicate. Medium containing different concentrations of the compounds were prepared by adding 2 μL of the compound dilution to 1 mL of the culture medium. The final concentration of DMSO in the medium was 0.2%. FuGENE® HD transfection reagent (Promega) was used to transfect the plasmid pYX016 into the cells. The transfection mix was prepared in OpiMEM (Thermo Fisher) using a reagent to DNA ratio of 3.5:1 according to manufacturer's instructions. Culture medium was removed from the cells and discarded. The transfection mix (5 μL) was mixed with the compound containing medium (100 μL/well) and this was added onto the cells of each well. Cells were incubated for 48H at 37° C./5% CO2. Luciferase reporter activity was quantified with the Dual-Luciferase® Reporter Assay System (Promega) according to manufacturer's instructions for multiwell plates with the following modification: Cells were lysed directly on the multiwell plate with 30 μL of the passive lysis buffer (PLB) for 20 min at room temperature, with gentle shaking to ensure complete cell lysis (instead of 20 μL of PLB for 15 min). Firefly and Renilla luciferase signals were measured using a SpectraMax i3x Multi-Mode Microplate Reader. […] Relative L1 activity was calculated as Firefly/Renilla *10,000. […] The experiment was performed twice, independently.

Read-outs that look alike come from different tables or passages of the source.

Regarding `Nc1nc(=O)n([C@@H]2C=C[C@H](CO)O2)cc1F` [Elvucitabine], the “toxicity in the cell viability assay” value in data set [1] was “without inducing toxicity”. Also, the concentration for half-maximal inhibition (IC50) was 94 nM in data set [2] (pYX017, 72 H post-transfection, read-out: Human L1 activity inhibition IC50, Exp. 1); around 100 nM in data set [2] (read-out: human L1 inhibition IC50); 116 nM in data set [3] (pYX016, 48 H post-transfection, read-out: Mouse L1 activity inhibition IC50, Exp. 1); 106 nM in data set [3] (pYX016, 48 H post-transfection, read-out: Mouse L1 activity inhibition IC50, Exp. 2); 111 nM in data set [3] (pYX016, 48 H, n = 2, read-out: Mouse L1 activity inhibition IC50, Average); around 100 nM in data set [3] (read-out: mouse L1 inhibition IC50).

Usually IC50 stands for the concentration at which inhibition is half-maximal.
